Results from the supplement of paper PMC4862054.

Columns and labels:
Assay in all cases: normalised response (% of control), CellTox Green; higher = less cell death (100 = DMSO, 0 = benzethonium chloride kill control)
Details in all cases: incubation time: 72 h
BT-474 = test system: BT-474
Outline: (§1)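 Each entry is the normalised signal at a single concentration within a series. The series comprised 5 concentrations in 10-fold steps over a compound-specific 10,000-fold range, placed in 384-well plates into which breast cancer cell lines were seeded as 20 µl suspension and incubated 72 h. CellTox Green (485/520 nm) fluorescence and then CellTiter-Glo luminescence were read, with signals normalised per plate to 0.1 % DMSO (100) and a positive kill control (0).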

BT-549 = test system: BT-549
Outline: as §1

CAL-120 = test system: CAL-120
Outline: as §1

CAL-148 = test system: CAL-148
Outline: as §1

CAL-51 = test system: CAL-51
Outline: as §1

CAL-85-1 = test system: CAL-85-1
Outline: as §1

DU-4475 = test system: DU-4475
Outline: as §1

HCC1143 = test system: HCC1143
Outline: as §1

HCC1599 = test system: HCC1599
Outline: as §1

HCC1937 = test system: HCC1937
Outline: as §1

HDQ-P1 = test system: HDQ-P1
Outline: as §1

Hs578T = test system: Hs578T
Outline: as §1

MCF-10A = test system: MCF-10A
Outline: as §1

MDA-MB-231 = test system: MDA-MB-231
Outline: as §1

MDA-MB-436 = test system: MDA-MB-436
Outline: as §1

MDA-MB-453 = test system: MDA-MB-453
Outline: as §1

MDA-MB-468 = test system: MDA-MB-468
Outline: as §1

MFM-223 = test system: MFM-223
Outline: as §1

Row | SMILES | normalised response (BT-474) [%] | normalised response (BT-549) [%] | normalised response (CAL-120) [%] | normalised response (CAL-148) [%] | normalised response (CAL-51) [%] | normalised response (CAL-85-1) [%] | normalised response (DU-4475) [%] | normalised response (HCC1143) [%] | normalised response (HCC1599) [%] | normalised response (HCC1937) [%] | normalised response (HDQ-P1) [%] | normalised response (Hs578T) [%] | normalised response (MCF-10A) [%] | normalised response (MDA-MB-231) [%] | normalised response (MDA-MB-436) [%] | normalised response (MDA-MB-453) [%] | normalised response (MDA-MB-468) [%] | normalised response (MFM-223) [%]
1 | COc1ncc(-c2ccc3nccc(-c4ccnnc4)c3c2)cc1NS(=O)(=O)c1ccc(F)cc1F (100 nM) | 69.1 | 94.8 | 102 | 67 | 70 | 99.1 | 99.6 | 110 | 106 | 90.5 | 86 | 85.2 | 97.7 | 91.2 | 93.5 | 95 | 89.5 | 76.5
2 | COC1=CC(c2cc3ccccc3[nH]2)=N/C1=C\c1[nH]c(C)cc1C [Obatoclax] (10000 nM) | 94.9 | 78.2 | 99.2 | 77.3 | -16.5 | 117 | 101 | 91.9 | 99.9 | 95.4 | 102 | 129 | 74.2 | 0.38 | 102 | 96.2 | 82.9 | 96.7
3 | CC(C)C[C@H](NC(=O)[C@H](Cc1ccccc1)NC(=O)c1cnccn1)B(O)O [Bortezomib] (100 nM) | 67.6 | 55.3 | 35.5 | -26.8 | -29 | -7.21 | 89.7 | 83.5 | 87.5 | -5.94 | 9.79 | 15.4 | 74 | -41.1 | 28.8 | 92.7 | -55.4 | 39.2
4 | CCS(=O)(=O)c1cccc(-c2cc(C(=O)NC3CCN(C)CC3)c(C)c3[nH]c4ncc(C)cc4c23)c1 [TAK-901] (1000 nM) | 91.5 | 41 | 84.2 | 84.6 | 36.5 | 58.9 | 97 | 87.8 | 97.1 | 95.2 | 55 | 106 | 90 | 57.7 | 69.2 | 105 | 74.3 | 85
5 | CCOc1cc2ncc(C#N)c(Nc3ccc(OCc4ccccn4)c(Cl)c3)c2cc1NC(=O)/C=C/CN(C)C [Neratinib] (1000 nM) | 77.1 | 101 | 71.7 | 77.3 | 95.8 | 54 | 94.7 | 105 | 106 | 95.7 | 55.7 | 120 | 115 | 6.81 | 104 | 99.9 | -68.6 | 100
6 | CC(C)(C)c1cc(NC(=O)Nc2ccc(-c3cn4c(n3)sc3cc(OCCN5CCOCC5)ccc34)cc2)no1 [Quizartinib] (1000 nM) | 101 | 127 | 103 | 103 | 111 | 62.5 | 102 | 132 | 105 | 96 | 90.1 | – | 93.3 | 124 | 71.8 | 112 | 174 | 59.1
7 | O=c1[nH]cc(F)c(=O)[nH]1 [Fluorouracil] (10000 nM) | 105 | 95.8 | 105 | 92.9 | 120 | 75 | 99.2 | 103 | 95.2 | 104 | – | 118 | 75.7 | 105 | 75.7 | 100 | -57.8 | 103
8 | COC1=C2C[C@@H](C)C[C@H](OC)[C@H](O)[C@@H](C)/C=C(\C)[C@H](OC(N)=O)[C@@H](OC)/C=C\C=C(/C)C(=O)NC(=CC1=O)C2=O [Geldanamycin] (1000 nM) | 95 | 112 | 102 | – | 109 | 91 | 99.2 | 102 | 92.2 | 105 | 102 | 91.1 | 96.8 | 107 | 92.2 | 104 | – | 90.7
9 | O=c1[nH]c(=O)n([C@H]2C[C@H](O)[C@@H](CO)O2)cc1F [Floxuridine] (10000 nM) | 104 | 113 | 93.8 | 106 | 53.1 | 26.5 | 103 | 103 | 106 | 114 | 66.2 | 93.2 | 113 | 108 | 99.9 | 103 | 119 | –
10 | Cn1c(=O)c(F)c(Nc2ccc(I)cc2F)c2c(=O)n(C[C@@H](O)CO)cnc21 [TAK-733] (100 nM) | 103 | 89.6 | 97 | 105 | 80.9 | 89 | 74 | 124 | 104 | 108 | 97.3 | – | 79.7 | 71.3 | 104 | 112 | 127 | 74.9
11 | O=C(c1ccc(OCCN2CCCCC2)cc1)c1c(-c2ccc(O)cc2)sc2cc(O)ccc12 [Raloxifene] (10000 nM) | 95.4 | 101 | – | 103 | 108 | 63.3 | 99.6 | 118 | 58.4 | 82.8 | 50.4 | – | 82.2 | 62.7 | 104 | 99.2 | 82.7 | 102
12 | Cn1cnc2c(F)c(Nc3ccc(Br)cc3F)c(C(=O)NOCCO)cc21 [MEK-162] (1000 nM) | 101 | 97.4 | 93.1 | – | 89.1 | 79.3 | 68.7 | 94.5 | 94.4 | 54.6 | 67.1 | 121 | 106 | 39.1 | 79.9 | 95.4 | 120 | –
13 | O=C(c1ccc(OCCN2CCCCC2)cc1)c1c(-c2ccc(O)cc2)sc2cc(O)ccc12 [Raloxifene] (1000 nM) | 97 | 106 | 104 | 92 | 121 | 98.6 | 104 | 119 | 102 | 119 | 105 | 105 | 104 | 103 | 107 | 103 | 120 | –
14 | CS(=O)(=O)CCNCc1ccc(-c2ccc3ncnc(Nc4ccc(OCc5cccc(F)c5)c(Cl)c4)c3c2)o1 [Lapatinib] (1000 nM) | 76.4 | 93.4 | 99.2 | 64.5 | 106 | 59.3 | 100 | 99 | 107 | – | 96.8 | – | 26.9 | – | 98.7 | 82.5 | 84.8 | 104
15 | C[C@@H]1C=C2C(=O)O[C@@H]3CC[C@H](C1)[C@]23O [Galiellalactone] (5000 nM) | 100 | 117 | 58.8 | 104 | 101 | 106 | 106 | 105 | 105 | 115 | 98.5 | 112 | 82.2 | 107 | 96.5 | 103 | – | 101
16 | COC1=CC(c2cc3ccccc3[nH]2)=N/C1=C\c1[nH]c(C)cc1C [Obatoclax] (1000 nM) | 97.3 | 113 | 90.5 | 105 | 100 | 101 | 98.1 | 105 | 100 | -5.92 | – | 107 | 70.1 | 64.3 | 91.5 | 105 | 107 | 102
17 | CC(C)(C)c1cc(NC(=O)Nc2ccc(-c3cn4c(n3)sc3cc(OCCN5CCOCC5)ccc34)cc2)no1 [Quizartinib] (100 nM) | 100 | 132 | 99.7 | 106 | 117 | 107 | 101 | 98.3 | 106 | – | 103 | 113 | 84.8 | 116 | 66.7 | 101 | 139 | 102
18 | CN1CCN(c2ccc3nc(-c4c(N)c5c(F)cccc5[nH]c4=O)[nH]c3c2)CC1 [Dovitinib] (10000 nM) | 99.9 | 121 | 101 | 92.4 | 118 | 86.8 | 101 | 111 | 104 | 97.9 | 108 | – | 99.3 | – | 108 | 103 | 126 | 99.1
19 | O=c1[nH]c(=O)n([C@H]2C[C@H](O)[C@@H](CO)O2)cc1F [Floxuridine] (1000 nM) | 102 | 111 | 98.4 | – | 71 | 89.6 | 106 | 122 | 104 | 126 | 98 | 98.3 | 116 | 86 | 108 | 110 | 125 | 102
20 | COc1ccc(C2=N[C@@H](c3ccc(Cl)cc3)[C@@H](c3ccc(Cl)cc3)N2C(=O)N2CCNC(=O)C2)c(OC(C)C)c1 [Nutlin-3] (1000 nM) | 100 | 116 | 102 | 102 | – | 108 | 100 | 94.2 | 99.6 | 115 | 112 | 61.6 | 84 | 104 | 92.7 | 109 | 108 | 100
21 | COc1ccc(C2=N[C@@H](c3ccc(Cl)cc3)[C@@H](c3ccc(Cl)cc3)N2C(=O)N2CCNC(=O)C2)c(OC(C)C)c1 [Nutlin-3] (10000 nM) | 97.6 | 105 | 98.2 | 43.8 | 41.2 | 80.3 | 91 | 105 | 101 | – | 103 | 115 | 101 | 108 | 95 | 92.3 | 107 | 96.4
